Where a name gives a salt, the structure may show the parent alone.
Test: Final product mixed with Deionized Water at room temperature
Format: physicochemical
Conditions: 0.0130 g of final product mixed with 1.287 g of Deionized Water at room temperature
From the text: Vacuum filtered solution through Grade 4 filter paper to obtain a clear, colorless solution. […] The solution was concentrated using a rotary evaporator until mixture began to foam, then solution was transferred to a glass crystallizing dish and placed in a vacuum oven at room temperature under a partial vacuum of 3 inches of Hg internal oven pressure.

| Compound | appearance of mixture with Deionized Water (solubility) |
| --- | --- |
| CCCCCCCCCCCCCCNC(=O)[C@H](O)[C@@H](O)[C@H](O)[C@H](O)COS(=O)(=O)O [Example 2, Sodium (2R,3R,4S,5R)-6-(tetradecylamino)-2,3,4,5-tetrahydroxy-6-oxohexyl sulfate] | completely clear, colorless solution that foamed when shaken |
| CCCCCCCC/C=C\CCCCCCCCNC(=O)[C@H](O)[C@@H](O)[C@H](O)[C@H](O)COS(=O)(=O)O [Example 4, Sodium (2R,3R,4S,5R)-2,3,4,5-tetrahydroxy-6-(((Z)-octadec-9-en-1-yl)amino)-6-oxohexyl sulfate] | completely clear, colorless solution that foamed when shaken |
| CCCCCCCCCCCCCCCCNC(=O)[C@H](O)[C@@H](O)[C@H](O)[C@H](O)COS(=O)(=O)O [Example 3, Sodium (2R,3R,4S,5R)-6-(hexadecylamino)-2,3,4,5-tetrahydroxy-6-oxohexyl sulfate] | completely clear, colorless solution that foamed when shaken |
| CCCCCCCCCCCCNC(=O)[C@H](O)[C@@H](O)[C@H](O)[C@H](O)COS(=O)(=O)O [Example 1, Sodium (2R,3R,4S,5R)-6-(dodecylamino)-2,3,4,5-tetrahydroxy-6-oxohexyl sulfate] | completely clear, colorless solution that foamed when shaken |
| O=C(NCc1ccccc1)[C@H](O)[C@@H](O)[C@H](O)[C@H](O)COS(=O)(=O)O [Example 7, Sodium (2R,3R,4S,5R)-6-(benzylamino)-2,3,4,5-tetrahydroxy-6-oxohexyl Sulfate] | completely clear, colorless solution that foamed when shaken |
| Sodium (2R,3R,4S,5R)-6-((2-1H-indol-2-yl)ethyl) amino)-2,3,4,5-tetrahydroxy-6-Oxohexyl Sulfate [Example 8] | completely clear, colorless solution that foamed when shaken |

— US20240409505A1, “GLUCONAMIDE SULFATE SURFACTANTS” (The Procter & Gamble Company, priority 2023, published 2024)
